Results as given in ChEMBL document CHEMBL1667796, “Synthesis and evaluation of phosphonated N-heteroarylcarboxamides as DOXP-reductoisomerase (DXR) inhibitors” (Bioorg Med Chem, 2011).
The source made the active and inactive calls. The rule behind the calls is not given here.

Experiments:
[1] = Inhibition of Escherichia coli DXR assessed as conversion of NADPH to NADP by spectrophotometry
Escherichia coli [2] = assay: Binding affinity at Escherichia coli DXR by saturation transfer difference NMR spectroscopy
Escherichia coli [3] = assay: Inhibition of Escherichia coli DXR assessed as conversion of NADPH to NADP at 500 uM by spectrophotometry
Escherichia coli [4] = assay: Inhibition of Escherichia coli DXR assessed as conversion of NADPH to NADP at 0.3 uM by spectrophotometry

Row | inhibition (Escherichia coli [4]) [%] | SMILES | IC50 ([1]; read-out: IC50) [µM] | Activity (Escherichia coli [2]) | inhibition (Escherichia coli [3]) | IC50 [1]
1 |  | CCOP(=O)(CC(=O)Nc1ccon1)OCC | 1170 | Active | 11.7% | 
2 |  | CCOP(=O)(CC(=O)NCc1ccco1)OCC | 408 | Active | 67.7% | 
3 |  | CCOP(=O)(CC(=O)Nc1ccccn1)OCC | 472 | Active | 58.5% | 
4 |  | O=C(CP(=O)([O-])[O-])Nc1ccccn1.[Na+].[Na+] |  | Active | inactive | Not Active
5 |  | O=C(CP(=O)(O)O)Nc1ccon1 | > 1500 | Active | 12.2% | 
6 | 99.3 | O=CN(O)CCCP(=O)(O)O |  |  |  | 
7 |  | CCOP(=O)(CC(=O)Nc1nccs1)OCC | 730 | Active | 28.9% | 
8 |  | CC(=O)c1sc(NC(=O)CP(=O)(O)O)nc1C | > 1500 | Active | 16.6% | 
9 |  | O=C(CP(=O)(O)O)NCc1ccco1 | 1030 | Active | 30% | 
10 |  | O=C(CP(=O)(O)O)Nc1nccs1 | > 1500 | Active | 7.4% | 
11 |  | CCOP(=O)(CC(=O)Nc1nc(C)c(C(C)=O)s1)OCC | 1290 | Active |  | 
